Source: ChEMBL document CHEMBL1130867, “Ascorbic acid-based inhibitors of alpha-amylases” (Bioorg Med Chem Lett, 1998)

Key:
Conditions in all cases: concentration not given here
[1] = tested on: Alpha-amylase (Hordeum vulgare); assay: Inhibition of malt alpha-amylase; design: concentration or dose not given beside the values
Bacteria = assay: Inhibition of Alpha-amylase; design: concentration or dose not given beside the values
[2] = target: T1, Alpha-amylase 1A (Homo sapiens) (UniProt P0DUB6); assay: Inhibition of salivary alpha-amylase
T1 sequence (whole entry): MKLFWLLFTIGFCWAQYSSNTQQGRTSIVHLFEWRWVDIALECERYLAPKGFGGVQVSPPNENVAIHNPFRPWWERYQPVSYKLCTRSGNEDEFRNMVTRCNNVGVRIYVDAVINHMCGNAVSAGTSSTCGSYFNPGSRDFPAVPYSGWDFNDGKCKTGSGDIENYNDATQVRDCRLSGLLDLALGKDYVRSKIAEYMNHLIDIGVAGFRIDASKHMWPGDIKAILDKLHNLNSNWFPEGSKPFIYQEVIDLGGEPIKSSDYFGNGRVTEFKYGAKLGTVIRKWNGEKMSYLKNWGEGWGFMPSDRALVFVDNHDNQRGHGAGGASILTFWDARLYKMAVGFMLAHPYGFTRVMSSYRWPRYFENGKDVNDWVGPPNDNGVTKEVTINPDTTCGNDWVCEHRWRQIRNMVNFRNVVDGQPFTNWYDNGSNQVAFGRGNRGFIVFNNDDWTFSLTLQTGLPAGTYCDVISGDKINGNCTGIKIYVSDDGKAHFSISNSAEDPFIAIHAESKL

Fungi = assay: Inhibition of fungal alpha-amylase; design: concentration or dose not given beside the values
[3] = target: T2, Pancreatic alpha-amylase (Homo sapiens) (UniProt P04746); assay: Inhibition of pancreatic alpha-amylase; design: concentration or dose not given beside the values
T2 sequence (whole entry): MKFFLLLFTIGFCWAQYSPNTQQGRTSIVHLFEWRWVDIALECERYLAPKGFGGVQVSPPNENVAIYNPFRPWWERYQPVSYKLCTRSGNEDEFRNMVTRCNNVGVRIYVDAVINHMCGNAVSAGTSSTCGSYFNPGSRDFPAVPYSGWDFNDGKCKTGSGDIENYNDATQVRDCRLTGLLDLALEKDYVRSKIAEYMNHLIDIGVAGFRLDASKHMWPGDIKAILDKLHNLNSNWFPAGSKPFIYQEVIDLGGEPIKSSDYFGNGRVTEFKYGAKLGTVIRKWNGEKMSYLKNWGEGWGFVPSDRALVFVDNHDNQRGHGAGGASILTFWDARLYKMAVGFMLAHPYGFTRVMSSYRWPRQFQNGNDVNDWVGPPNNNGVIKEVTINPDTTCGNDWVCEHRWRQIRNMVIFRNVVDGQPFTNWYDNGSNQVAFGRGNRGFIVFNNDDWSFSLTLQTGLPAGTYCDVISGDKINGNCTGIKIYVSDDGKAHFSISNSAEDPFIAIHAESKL

| inhibition [1] [%] | inhibition (Bacteria) [%] | inhibition [2] [%] | inhibition (Fungi) [%] | inhibition [3] [%] | SMILES |
| --- | --- | --- | --- | --- | --- |
| 0 | – | – | – | – | COC1=C(OC)C(C(COC(C)=O)OC(C)=O)OC1=O (centres undefined) |
| 9 | – | – | – | – | COC1=C(O)C(=O)OC1C(O)CO (centres undefined) |
| – | 99 | 100 | 98 | 100 | O=C1O[C@H]([C@@H](O)CO)C(O)=C1O (stereo in doubt; 1b) |
| 9 | – | – | – | – | COC1=C(OC(C)=O)C(C2COC(C)(C)O2)OC1=O (centres undefined) |
| 3 | – | – | – | – | COC1=C(OC)C(C(O)COC(C)=O)OC1=O (centres undefined) |
| 2 | – | – | – | – | COC1=C(OC)C(C2COC(C)(C)O2)OC1=O (centres undefined) |
| 93 | 93 | 98 | 91 | 99 | CC1(C)OCC(C2OC(=O)C(O)=C2O)O1 (stereo in doubt; 2b) |
| 4 | – | – | – | – | COC1=C(OC)C(C(O)CO)OC1=O (centres undefined) |
| 90 | 98 | 88 | 94 | 99 | CC1(C)OCC(C2OC(=O)C(O)=C2O)O1 (stereo in doubt; 2a) |
| 10 | – | – | – | – | CCCC(=O)OCC(O)C1OC(=O)C(OC)=C1OC (centres undefined) |
| 7 | – | – | – | – | CCC(=O)OCC(O)C1OC(=O)C(OC)=C1OC (centres undefined) |
| – | 84 | 69 | 70 | 88 | CCCCCCCCCCCCCCCC(=O)OC[C@H](O)[C@H]1OC(=O)C(O)=C1O |
| 29 | 8 | – | 17 | 0 | COC1=C(O)C(=O)OC1C1COC(C)(C)O1 (centres undefined) |
| 89 | 92 | – | 91 | 99 | CC(=O)OCC(OC(C)=O)C1OC(O)=C(O)C1=O (centres undefined) |
